Source: patent publication US9061984B2 (University of Louisville Research Foundation, Inc., priority 2008, dated 2015)
Converted amounts (≈) assume the structure as drawn. Read-outs that look alike come from different tables or passages of the source.

Legend:
L. amazonensis Lma CL1 = assay: Activity against macrophages infected with Leishmania amastigotes; settings: Leishmania amazonensis, Macrophage, 48 h, read-out: IC50 L. amazonensis Lma CL1
Experimental: (§3) A cloned line of Leishmania amazonensis(strain MHOM/BR/76/LTB-012) was used in all experiments. Axenically grown amastigote forms of L. amazonensis were maintained by weekly subpassages in MAA/20 medium (Sereno and Lemesre, Antimicrobial Agents and Chemotherapy 41, 972-976 (1997)) at 32±1° C. in 25 cm^2 tissue culture flasks. L. peruviana (strain MHOM/PE/LCA08) and L. braziliensis (strainMHOM/PE/PER006) were maintained in the promastigote stage in a biphasic medium (blood agar with 0.89% NaCl, pH 7.4) at 24° C., with sub-passage every 3 to 4 days. Promastigotes (5×10^6 parasites) were then transferred to 25 cm2 tissue culture flasks containing 5 ml of M199 medium supplemented with 10% foetal bovine serum (FBS), pH 7.4. After 4 days, exponential phase promastigotes were centrifuged for 10 minutes at 1500 g and 4° C. The supernatant was discarded and replaced by fresh M199 medium supplemented with 20% FBS, pH 5.5. Axenic amastigotes transformation was then induced by increasing the temperature to 34° C. and incubating for 96 h (Teixeira et al., Parasitology Research 88, 963-968 (2002)).
(§4) Extracted cells were immediately deposited on sterile 4×4 mm cover glasses and placed in each well of a 96-well plate. Plates were incubated for 24 h at 37° C., 5% CO2 to allow cell adhesion (Castillo et al, Journal of Ethnopharmacology 112, 410-414 (2007)). Pre-warmed complete M199 medium was used twice to remove non-adherent cells. A neutral red method (Fautz et al., Mutation Research 253, 173-179 (1991)) was employed to determine cell concentration. Approximately 7×10^4 viable cells were deposited in each well for adhesion.
(§5) Infection of macrophages by amastigotes was determined as follows. […] Twelve hours after infection, a solution of the compounds to be tested was added to the cultures at various concentrations and maintained at 37° C. in 5% CO2 for a further forty-eight hours more. The plates were fixed with methanol and stained with 10% Giemsa stain. The percentage of infected macrophages was determined microscopically at 100 times magnification. The number of intracellular amastigotes was determined in 300 cells. Following Delorenzi et al. Antimicrobial Agents and Chemotherapy, 45, 1349-1354 (2001)) the percentage of infection rate (% IR) of each culture was calculated as follows: % IR=100−(infection rate of the treated culture/infection rate of the untreated culture)×100.
(§6) All experiments were performed in triplicate. ANOVA was used to test for statistical significance of differences (Epi-Info, Statview student program). The total parasite burden was calculated as a mean number of amastigotes per cells multiplied by the number of infected macrophages.

peritoneal macrophages = assay: Toxicity to peritoneal macrophages (Trypan Blue count); type: cell-based, BALB/C mouse; settings: Mus musculus, Peritoneal macrophage, 48 h; Table 7; read-out: IC50 Macrophage
L. braziliensis PER006 = assay: Activity against macrophages infected with Leishmania amastigotes; settings: Leishmania braziliensis, Macrophage, read-out: IC50 L. braziliensis PER006
Experimental: as §3, §4, §5, §6

L. peruviana LCA08 = assay: as above; settings: Leishmania peruviana, Macrophage, read-out: IC50 L. peruviana LCA08
[1] = test system: axenic amastigotes of L. amazonensis (strain MHOM/BR/76/LTB-012); assay: microbe, parasite or virus in culture; settings: Leishmania amazonensis
L. amazonensis = settings: for Lesion diameter / Reduction of parasite burden After 4 weeks / Reduction of parasite burden After 7 weeks / Mean lesion size (mm) / Mean parasite quantification (per 10^6) in lesion per mg (±SD) / Mean lesion wt (mg) (±SD) / % Variation of lesion wt / % reduction of parasite burden in the lesion: compounds 5 mg/kg/day, intralesional; for Lesion diameter / Reduction of parasite burden After 4 weeks / Reduction of parasite burden After 7 weeks: Glucantime 33 mg/kg/day; for cutaneous toxicity: at the tested doses (5 mg/kg/day intralesional); for Mean lesion size (mm) / Mean parasite quantification (per 10^6) in lesion per mg (±SD) / Mean lesion wt (mg) (±SD) / % Variation of lesion wt / % reduction of parasite burden in the lesion: Glucantime 33 mg Sb(v)/kg/day; for Mean lesion wt (mg) (±SD): BALB/c mice n=10; for % Variation of lesion wt / % reduction of parasite burden in the lesion: vs control
[2] = Cytotoxicity VERO cell (Table 6); settings: African green monkey, VERO cells
VERO cells = assay: Cell growth inhibition bioassay (sulforhodamine B); type: cell-based, African Green Monkey; settings: Chlorocebus sabaeus, Vero; 48 h, SRB; read-out: GI50 in indicated cell line: VERO
Procedure, shortened: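 Cytotoxicity is read by sulforhodamine B colorimetry following the Skehan protocol; values are growth inhibition relative to solvent-only wells.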

[3] = Toxicity to peritoneal macrophages (Trypan Blue count); type: cell-based, BALB/C mouse; settings: BALB/C, mouse, Cytotoxicity Macrophages IC50
[4] = Cytotoxicity on VERO cells (MTT), anti-T. cruzi study; settings: African green monkey, VERO cells, Cytotoxicity VERO Lab B, Lab B
3T3 cells = assay: Cell growth inhibition bioassay (sulforhodamine B); type: cell-based, mouse; settings: Mus musculus, NIH3T3; 48 h, SRB; read-out: GI50 in indicated cell line: 3T3
Procedure, shortened: (§1)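 Cells were exposed to compound alongside matched solvent controls, then stained with sulforhodamine B. Percent growth inhibition was calculated from dye absorbance against the control.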

M. tuberculosis H37Rv = assay: Conventional aerobic (MABA) culture assay, luminescence MIC; type: cell-based, Mycobacterium tuberculosis; settings: for MIC: Mycobacterium tuberculosis, 168 h, aerobic, 7 days, H37Rv; for Selectivity Index H37Rv: VERO vs MABA MIC
HT-29 cells = assay: Cell growth inhibition bioassay (sulforhodamine B); type: cell-based, human; settings: Homo sapiens, HT-29; 48 h, SRB; read-out: GI50 in indicated cell line: HT-29
Procedure, shortened: as §1

MCF-7 cells = assay: Cell growth inhibition bioassay (sulforhodamine B); type: cell-based, human; settings: Homo sapiens, MCF7; 48 h, SRB; read-out: GI50 in indicated cell line: MCF-7
Procedure, shortened: (§2)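 SRB colorimetric read-out; % growth inhibition vs solvent control. Human lines: MCF-7 (breast adenocarcinoma), DU145 (prostate carcinoma), PC3 (prostate adenocarcinoma), H460 (large cell lung cancer).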

K562 cells = assay: Cell growth inhibition bioassay (sulforhodamine B); type: cell-based, human; settings: Homo sapiens, K562; 48 h, SRB; read-out: GI50 in indicated cell line: K562
Procedure, shortened: as §1

DU145 cells = assay: Cell growth inhibition bioassay (sulforhodamine B); type: cell-based, human; settings: Homo sapiens, DU-145; 48 h, SRB; read-out: GI50 in indicated cell line: DU145
Procedure, shortened: as §2

M-14 cells = assay: Cell growth inhibition bioassay (sulforhodamine B); type: cell-based, human; settings: Homo sapiens, M14; 48 h, SRB; read-out: GI50 in indicated cell line: M-14
Procedure, shortened: as §1

H460 cells = assay: Cell growth inhibition bioassay (sulforhodamine B); type: cell-based, human; settings: Homo sapiens, NCI-H460; 48 h, SRB; read-out: GI50 in indicated cell line: H460
Procedure, shortened: as §2

[5] = test system: axenic amastigotes of L. amazonensis (strain MHOM/BR/76/LTB-012); settings: Table 8b
[6] = test system: Trypanosoma cruzi (Tulahuen C4); assay: In vitro anti-T. cruzi activity (β-galactosidase CPRG colorimetric assay in VERO monolayer); type: cell-based; settings: for Selectivity Index Lab B: IC50, VERO/IC50, T. cruzi; for IC50: Trypanosoma cruzi, TULAHUEN, Vero
[7] = 72 h, read-out: IC50 L. amazonensis
[8] = Lab A, read-out: T. cruzi IC50 Lab A
[9] = Lab B, read-out: T. cruzi IC50 Lab B

Structure (SMILES)	IC50 (L. amazonensis Lma CL1) [µM]	IC50 (peritoneal macrophages) [µM]	IC50 (L. braziliensis PER006; 48 h) [µM]	IC50 [1, 7] [µM]	IC50 [2] [µg/mL]	GI50 (VERO cells) [µg/mL]	IC50 at 48 h [3] [µM]	IC50 [4] [µg/mL]	GI50 (3T3 cells) [µg/mL]	MIC (M. tuberculosis H37Rv) [µg/mL]	Selectivity Index H37Rv (M. tuberculosis H37Rv)	GI50 (HT-29 cells) [µg/mL]	GI50 (MCF-7 cells) [µg/mL]	GI50 (K562 cells) [µg/mL]	GI50 (DU145 cells) [µg/mL]	GI50 (M-14 cells) [µg/mL]	GI50 (H460 cells) [µg/mL]	Selectivity Index [5]	IC50 ([1]; read-out: L. amazonensis IC50) [µM]	Selectivity Index Lab B ([6]; Lab B)	also measured
COc1ccc(/C=C/C(=O)c2c(O)cc(O)cc2OC)c(OC)c1 [Compound I-36, (2E)-1-(2,4-Dihydroxy-6-methoxyphenyl)-3-(2,4-dimethoxyphenyl)-2-propen-1-one]	28.5	> 300	237	6.4																	IC50 (L. peruviana LCA08; 48 h): 290 µM
C=CCOc1cc(/C=C/C(=O)c2c(O)cc(O)cc2OC)cc(OCC=C)c1Br [Compound I-42, (2E)-3-(3,5-Bis(2-propenyloxy)-4-bromophenyl)-1-(2,4-dihydroxy-6-methoxyphenyl)-2-propen-1-one]	4.1	11.5	14.4	1.1																	Reduction of parasite burden (column After 7 weeks, analyzed after 6 weeks treatment) (L. amazonensis; 5 mg/kg/day intralesional, after 6 weeks treatment (footnote d)): 8^d %; Lesion diameter (L. amazonensis): 4.6 mm; Reduction of parasite burden After 4 weeks (L. amazonensis): 9%
COc1cc(O)cc(O)c1C(=O)/C=C/c1ccco1 [Compound I-43, (2E)-1-(2,4-Dihydroxy-6-methoxyphenyl)-3-(2-furanyl)-2-propen-1-one]	17	384	30.4	4.6																	IC50 (L. peruviana LCA08; 48 h): 34.2 µM
COCOc1cc(OC)c(C(=O)/C=C/c2ccc(OC)cc2)c(OCOC)c1 [Compound I-44]	12.1	> 250	5.15	1.3																	Lesion diameter (L. amazonensis): 4.7 mm; Reduction of parasite burden After 4 weeks (L. amazonensis): 11%; Reduction of parasite burden After 7 weeks (L. amazonensis): 17%; IC50 (L. peruviana LCA08; 48 h): 111 µM
COCOc1cc(OC)c(C(=O)/C=C/c2ccc3c(c2)OCO3)c(OCOC)c1 [Compound I-45]	23.9	143	17.2	11.7																	cutaneous toxicity (L. amazonensis): did not exhibit any cutaneous toxicity; Lesion diameter (L. amazonensis): 4.6 mm; Reduction of parasite burden After 4 weeks (L. amazonensis): 92%; Reduction of parasite burden After 7 weeks (L. amazonensis): 35%; IC50 (L. peruviana LCA08; 48 h): 34.8 µM
COCOc1cc(O)c(C(=O)/C=C/c2cc(OC)c(OC)c(OC)c2)c(OC)c1 [Compound I-46]	28.7	132	13.1	6.2																	cutaneous toxicity (L. amazonensis): did not exhibit any cutaneous toxicity; Lesion diameter (L. amazonensis): 5.1 mm; Reduction of parasite burden After 4 weeks (L. amazonensis): 74%; Reduction of parasite burden After 7 weeks (L. amazonensis): 41%; IC50 (L. peruviana LCA08; 48 h): 19.3 µM
Oc1ccc(/C=N\Nc2ncnc3sc4c(c23)CCCC4)cc1 [II-09]					14.6 (≈ 45 µM)	6.8 (≈ 21 µM)	57.8	4 (≈ 12.3 µM)	2.1 (≈ 6.47 µM)	23.4 (≈ 72.1 µM)	0.6	6.3 (≈ 19.4 µM)	5.5 (≈ 17 µM)	5.1 (≈ 15.7 µM)	6.8 (≈ 21 µM)	5.6 (≈ 17.3 µM)	4.8 (≈ 14.8 µM)	4.3	13.5	1.1	IC50 [6, 8]: 2.6 µg/mL (≈ 8.01 µM); IC50 [6, 9]: 3.7 µg/mL (≈ 11.4 µM)
COc1cccc(/C=N\Nc2ncnc3sc4c(c23)CCCC4)c1 [II-11]					22.7 (≈ 67.1 µM)	6.2 (≈ 18.3 µM)	5.5	5 (≈ 14.8 µM)	6 (≈ 17.7 µM)	40.4 (≈ 119 µM)	0.6	2.5 (≈ 7.39 µM)	5 (≈ 14.8 µM)	5.3 (≈ 15.7 µM)	6 (≈ 17.7 µM)	48.4 (≈ 143 µM)	5.5 (≈ 16.3 µM)	0.5	12.2	0.9	IC50 [6, 8]: 1.5 µg/mL (≈ 4.43 µM); IC50 [6, 9]: 5.7 µg/mL (≈ 16.8 µM)
C(=N/Nc1ncnc2sc3c(c12)CCCC3)/c1ccc[nH]1 [II-19]					4 (≈ 13.5 µM)	0.6 (≈ 2.02 µM)	2.9	1 (≈ 3.36 µM)	0.7 (≈ 2.35 µM)	6.2 (≈ 20.8 µM)	0.7	1.1 (≈ 3.7 µM)	0.1 (≈ 0.336 µM)	0.6 (≈ 2.02 µM)	1.4 (≈ 4.71 µM)	0.7 (≈ 2.35 µM)	0.5 (≈ 1.68 µM)	1.0	3	0.1	IC50 [6, 8]: 0.6 µg/mL (≈ 2.02 µM); IC50 [6, 9]: 6.8 µg/mL (≈ 22.9 µM)
Clc1ccccc1/C=N\Nc1ncnc2sc3c(c12)CCCC3 [II-29]					29.3 (≈ 85.5 µM)	9.9 (≈ 28.9 µM)	3.8	5 (≈ 14.6 µM)	30.2 (≈ 88.1 µM)	42.6 (≈ 124 µM)	0.7	19.4 (≈ 56.6 µM)	7.5 (≈ 21.9 µM)	6.8 (≈ 19.8 µM)	26.7 (≈ 77.9 µM)	> 62.5	21.6 (≈ 63 µM)	5.0	0.8	0.7	IC50 [6, 9]: 7.3 µg/mL (≈ 21.3 µM)
Brc1ccccc1/C=N\Nc1ncnc2sc3c(c12)CCCC3 [II-31]					7.7 (≈ 19.9 µM)	2 (≈ 5.16 µM)	2.9	3 (≈ 7.75 µM)	4.3 (≈ 11.1 µM)	9.4 (≈ 24.3 µM)	0.8	3.1 (≈ 8 µM)	1.7 (≈ 4.39 µM)	1.2 (≈ 3.1 µM)	2.8 (≈ 7.23 µM)	6 (≈ 15.5 µM)	3 (≈ 7.75 µM)	5.8	0.5	0.8	IC50 [6, 8]: 0.8 µg/mL (≈ 2.07 µM); IC50 [6, 9]: 3.6 µg/mL (≈ 9.29 µM)
CCC(CC)=NNc1ncnc2sc3c(c12)CCCC3 [II-48]					32.9 (≈ 114 µM)	7.4 (≈ 25.7 µM)	46.7	6 (≈ 20.8 µM)	1.4 (≈ 4.85 µM)	46.2 (≈ 160 µM)	0.7	11.2 (≈ 38.8 µM)	4.4 (≈ 15.3 µM)	3.3 (≈ 11.4 µM)	4.3 (≈ 14.9 µM)	5.9 (≈ 20.5 µM)	4.4 (≈ 15.3 µM)	8.5	5.5	1.0	IC50 (L. braziliensis PER006): 3.2 µg/mL; Mean lesion size (mm) (L. amazonensis; after 4 weeks treatment): 2.8 mm; Mean parasite quantification (per 10^6) in lesion per mg (±SD) (L. amazonensis; after 4 weeks treatment): 0.60 (±0.44) amastigotes (×10^6)/mg; Mean lesion wt (mg) (±SD) (L. amazonensis; after 4 weeks treatment): 38.2 (±11.4) mg; % Variation of lesion wt (L. amazonensis; after 4 weeks treatment): 37%; % reduction of parasite burden in the lesion (L. amazonensis; after 4 weeks treatment): 65%; Mean lesion size (mm) (L. amazonensis; after 7 weeks treatment): 4.9 mm; Mean parasite quantification (per 10^6) in lesion per mg (±SD) (L. amazonensis; after 7 weeks treatment): 1.53 (±0.18) amastigotes (×10^6)/mg; Mean lesion wt (mg) (±SD) (L. amazonensis; after 7 weeks treatment): 85.0 (±4.5) mg; % Variation of lesion wt (L. amazonensis; after 7 weeks treatment): 5%; % reduction of parasite burden in the lesion (L. amazonensis; after 7 weeks treatment): 17%; IC50 (L. peruviana LCA08): 2 µg/mL; IC50 [6, 8]: 4.8 µg/mL (≈ 16.6 µM); IC50 [6, 9]: 6 µg/mL (≈ 20.8 µM)
